In patent US4843070A, “Substituted thiazetoquinoline-3-carboxylic acids and pharmaceutically acceptable salts thereof” (priority 1986, dated 1989):
Values after ≈ are worked out from the molar mass of the structure shown. Where two headings read alike, the source gives them in different places.

What was measured:
K. pneumoniae K-1966 = assay: MIC by agar plate dilution method, K. pneumoniae K-1966; type: cell-based; conditions: Klebsiella pneumoniae, K1966, K. pneumoniae K-1966, inoculum 10^6, 37° C., 18 hours, read-out: minimum inhibitory concentration (MIC)
Procedure: (§1) Test method: The MIC was measured by an agar plate dilution method in accordance with a standard method of Japan Chemotherapeutic Society (cf. Nippon Kagaku Ryoho Gakkaishi, 29(1), 76-79, 1981). Thus, the organisms incubated at 37° C. for 18 hours using sensitivity test broth (Nissei) was diluted to 10^6 CFU/ml using the same broth. […] As a control, enoxacin and ofloxacin were used in Tests 1 and 2, respectively.
(§2) The numbers of the inoculated bacteria were 10^6 in all cases and the unit of the MIC was micrograms/ml.

Proteus mirabilis 181 = assay: MIC by agar plate dilution method, Proteus mirabilis 181; type: cell-based; conditions: Test 2; Proteus mirabilis 181; inoculum 10^6; 37° C., 18 hours; read-out: minimum inhibitory concentration (MIC)
Procedure: as §1, §2

E. coli KC-14 [1] = assay: Therapeutic effect on infection in mice, E. coli KC-14; type: in vivo, ddY-strain male mice; conditions: Escherichia coli, KC14, po, 168 h
Procedure: (§3) Test Method: Escherichia coli KC-14 and Psudomonas aeruginosa E-2 were suspended in 4% mucin and 0.25 ml of it was inoculated into peritoneal cavity of ddY-strain male mice (body weight about 20 g; 4 weeks age; 10 mice per group). The numbers of the inoculated bacteria were 5.1×10^4 CFU/mouse and 7.5×10^4 CFU/mouse for E. coli and P. aeruginosa, respectively. The drug was administered orally once 2 hours after the infection of the bacteria and, out of the survival rate after one week, the ED50 values were calculated by a Behrens-Karber method. As controls, ofloxacin and enoxacin were used.
(§4) Bacteria used for calculating ED50 were E. coli KC-14 for (1) and P. aeruginosa E-2 for (2). The compounds (1) to (7) of the present invention designated in Table 2 are as follows.

S. epidermidis = assay: MIC by agar plate dilution method, S. epidermidis; type: cell-based; conditions: Staphylococcus epidermidis, Test 2, inoculum 10^6, 37° C., 18 hours, read-out: minimum inhibitory concentration (MIC)
Procedure: as §1, §2

[2] = test system: infections caused by Gram positive bacteria and Pseudomonas aeruginosa (chronic); conditions: background statement; cited from earlier work
S. flexneri = assay: MIC by agar plate dilution method, S. flexneri; type: cell-based; conditions: Shigella flexneri, 18 hours, read-out: minimum inhibitory concentration (MIC)
Procedure: as §1, §2

P. aeruginosa E-2 [3] = assay: Therapeutic effect on infection in mice, P. aeruginosa E-2; type: in vivo, ddY-strain male mice; conditions: Pseudomonas aeruginosa, E2, po, 168 h
Procedure: as §3, §4

E. coli NIHJ JC-2 = assay: MIC by agar plate dilution method, E. coli NIHJ JC-2; type: cell-based; conditions: Escherichia coli, NIHJJC2, E. coli NIHJ JC-2, inoculum 10^6, 37° C., 18 hours, read-out: minimum inhibitory concentration (MIC)
Procedure: as §1, §2

P. aeruginosa E-2 [4] = assay: MIC by agar plate dilution method, P. aeruginosa E-2; type: cell-based; conditions: Pseudomonas aeruginosa, E2, P. aeruginosa E-2, inoculum 10^6, 37° C., 18 hours, read-out: minimum inhibitory concentration (MIC)
Procedure: as §1, §2

B. subtilis ATCC 6633 = assay: MIC by agar plate dilution method, B. subtilis ATCC 6633; type: cell-based; conditions: Bacillus subtilis, ATCC6633, B. subtilis ATCC 6633, inoculum 10^6, 37° C., 18 hours, read-out: minimum inhibitory concentration (MIC)
Procedure: as §1, §2

S. aureus 209-P JC = assay: MIC by agar plate dilution method, S. aureus 209-P JC; type: cell-based; conditions: Staphylococcus aureus, S. aureus 209-P JC, inoculum 10^6, 37° C., 18 hours, read-out: minimum inhibitory concentration (MIC)
Procedure: as §1, §2

M. luteus ATCC 9341 = assay: MIC by agar plate dilution method, M. luteus ATCC 9341; type: cell-based; conditions: Micrococcus luteus, ATCC9341, inoculum 10^6, 37° C., 18 hours, read-out: minimum inhibitory concentration (MIC)
Procedure: as §1, §2

S. marcescens IFO 3736 = assay: MIC by agar plate dilution method, S. marcescens IFO 3736; type: cell-based; conditions: Serratia marcescens, IFO3736, inoculum 10^6, 37° C., 18 hours, read-out: minimum inhibitory concentration (MIC)
Procedure: as §1, §2

A. calcoaceticus 54 = assay: MIC by agar plate dilution method, A. calcoaceticus 54; type: cell-based; conditions: Acinetobacter calcoaceticus; Test 1; A. calcoaceticus 54; inoculum 10^6; 37° C., 18 hours; read-out: minimum inhibitory concentration (MIC)
Procedure: as §1, §2

P. vulgaris HX-19 = assay: MIC by agar plate dilution method, P. vulgaris HX-19; type: cell-based; conditions: Proteus vulgaris, HX19, Test 1, inoculum 10^6, 37° C., 18 hours, read-out: minimum inhibitory concentration (MIC)
Procedure: as §1, §2

S. aureus Smith = assay: MIC by agar plate dilution method, S. aureus Smith; type: cell-based; conditions: Staphylococcus aureus; Test 1; S. aureus Smith; inoculum 10^6; 37° C., 18 hours; read-out: minimum inhibitory concentration (MIC)
Procedure: as §1, §2

E. cloacae No. 1 = assay: MIC by agar plate dilution method, E. cloacae No. 1; type: cell-based; conditions: Enterobacter cloacae; Test 1; E. cloacae No. 1; inoculum 10^6; 37° C., 18 hours; read-out: minimum inhibitory concentration (MIC)
Procedure: as §1, §2

E. coli KC-14 [5] = assay: MIC by agar plate dilution method, E. coli KC-14; type: cell-based; conditions: Escherichia coli, KC14; Test 1; E. coli KC-14; inoculum 10^6; 37° C., 18 hours; read-out: minimum inhibitory concentration (MIC)
Procedure: as §1, §2

in vivo = conditions: mouse, oral administration, ddY-strain male mice, 2 weeks
Source text: The result of oral administration to ddY-strain male mice (7 weeks age; body weight ca. 35 g; 3 mice per group) for 2 weeks was given.

[6] = E. coli KC-14, 5.1×10^4 CFU/mouse i.p., drug orally once 2 hours after infection, survival after one week, read-out: ED50
[7] = P. aeruginosa E-2, 7.5×10^4 CFU/mouse i.p., drug orally once 2 hours after infection, survival after one week, read-out: ED50

CC1COc2c(N3CCN(C)CC3)c(F)cc3c(=O)c(C(=O)O)cn1c23 (racemic) [Ofloxacin, ofloxacin, reference compound]
MIC (K. pneumoniae K-1966; Test 2): 0.1 µg/mL (≈ 0.277 µM)
MIC (Proteus mirabilis 181): 0.1 µg/mL (≈ 0.277 µM)
ED50 (E. coli KC-14 [1]; [6]): 0.8 mg/kg
MIC (S. epidermidis): 1.56 µg/mL (≈ 4.32 µM)
activity against infections caused by Gram positive bacteria and Pseudomonas aeruginosa (chronic) [2]: not active
MIC (S. flexneri; Test 2, inoculum 10^6, 37° C.): 0.1 µg/mL (≈ 0.277 µM)
ED50 (P. aeruginosa E-2 [3]; [7]): 16 mg/kg
MIC (E. coli NIHJ JC-2; Test 2): 0.05 µg/mL (≈ 0.138 µM)
MIC (P. aeruginosa E-2 [4]; Test 2): 1.56 µg/mL (≈ 4.32 µM)
MIC (B. subtilis ATCC 6633; Test 2): 0.2 µg/mL (≈ 0.553 µM)
MIC (S. aureus 209-P JC; Test 2): 0.78 µg/mL (≈ 2.16 µM)
MIC (M. luteus ATCC 9341; Test 2, M. luteus ATTC 9341): 3.13 µg/mL (≈ 8.66 µM)
MIC (S. marcescens IFO 3736; Test 2, S. Marcescens IFO 3736): 0.39 µg/mL (≈ 1.08 µM)

CCn1cc(C(=O)O)c(=O)c2cc(F)c(N3CCNCC3)nc21 [Enoxacin, enoxacin, reference compound]
MIC (K. pneumoniae K-1966; Test 1): 0.2 µg/mL (≈ 0.624 µM)
ED50 (E. coli KC-14 [1]; [6]): 1.8 mg/kg
MIC (A. calcoaceticus 54): 1.56 µg/mL (≈ 4.87 µM)
activity against infections caused by Gram positive bacteria and Pseudomonas aeruginosa (chronic) [2]: not active
MIC (S. flexneri; Test 1, inoculum 10^6, 37° C.): 0.1 µg/mL (≈ 0.312 µM)
MIC (P. vulgaris HX-19): 0.05 µg/mL (≈ 0.156 µM)
ED50 (P. aeruginosa E-2 [3]; [7]): 13.1 mg/kg
MIC (E. coli NIHJ JC-2; Test 1): 0.2 µg/mL (≈ 0.624 µM)
MIC (P. aeruginosa E-2 [4]; Test 1): 0.78 µg/mL (≈ 2.44 µM)
MIC (S. aureus Smith): 0.78 µg/mL (≈ 2.44 µM)
MIC (E. cloacae No. 1): 0.1 µg/mL (≈ 0.312 µM)
MIC (B. subtilis ATCC 6633; Test 1): 0.2 µg/mL (≈ 0.624 µM)
MIC (S. aureus 209-P JC; Test 1): 0.78 µg/mL (≈ 2.44 µM)
MIC (M. luteus ATCC 9341; Test 1, M. luteus ATCC 9341): 25 µg/mL (≈ 78 µM)
MIC (E. coli KC-14 [5]): 0.1 µg/mL (≈ 0.312 µM)
MIC (S. marcescens IFO 3736; Test 1, S. marcescens IFO 3736): 0.39 µg/mL (≈ 1.22 µM)

CC1Sc2c(C(=O)O)c(=O)c3cc(F)c(N4CCN(C)CC4)cc3n21 (stereo not drawn) [Table 1 (2), 6-Fluoro-1-methyl-7-(4-methyl-1-piperazinyl)-4-oxo-4H-(1,3)thiazeto(3,2-a)quinoline-3-carboxylic acid]
LD50 at 336 h (in vivo): ≥ 3000 mg/kg

CC1Sc2c(C(=O)O)c(=O)c3cc(F)c(N4CCN(C)CC4)cc3n21.O=S(=O)(O)O (stereo not drawn) [Table 1 (5), 6-Fluoro-1-methyl-7-(4-methyl-1-piperazinyl)-4-oxo-4H-(1,3)thiazeto(3,2-a)quinoline-3-carboxylic acid sulfate]
ED50 (E. coli KC-14 [1]): 0.5 mg/kg
ED50 (P. aeruginosa E-2 [3]): 4 mg/kg

CCOC(=O)c1c2n(c3cc(N4CCN(C)C(C)C4)c(F)cc3c1=O)C(C)S2 (stereo not drawn) [Table 2 (3), Ethyl 7-(3,4-dimethyl-1-piperazinyl)-6-fluoro-1-methyl-4-oxo-4H-(1,3)thiazeto(3,2-a)quinoline-3-carboxylate]
LD50 at 336 h (in vivo): ≥ 3000 mg/kg

CCOC(=O)c1c2n(c3cc(N4CCN(CC(C)=O)CC4)c(F)cc3c1=O)C(C)S2 (stereo not drawn) [Table 2 (5), Ethyl 7-(4-acetonyl-1-piperazinyl)-6-fluoro-1-methyl-4-oxo-4H-(1,3)thiazeto(3,2-a)quinoline-3-carboxylate]
LD50 at 336 h (in vivo): ≥ 3000 mg/kg

CC(=O)CN1CCN(c2cc3c(cc2F)c(=O)c(C(=O)O)c2n3C(C)S2)CC1 (stereo not drawn) [Table 2 (6), 7-(4-Acetonyl-1-piperazinyl)-6-fluoro-1-methyl-4-oxo-4H-(1,3)thiazeto(3,2-a)quinoline-3-carboxylic acid]
ED50 (E. coli KC-14 [1]; [6]): 0.6 mg/kg
ED50 (P. aeruginosa E-2 [3]; [7]): 5 mg/kg
